Laboratory results: US20180110754A1, “CENICRIVIROC FOR THE TREATMENT OF FIBROSIS” (Tobira Therapeutics, Inc., priority 2015, published 2018)
“And” between values parts separate entries of the source, which are not always exact repeats. Equal entries are not always repeated.

Legend:
[1] = known short half-life; cited from earlier work
CCR3 = CCR3 (Homo sapiens, UniProt P51677); experiment: Inhibition of ligand binding to CCR3
[2] = test system: RANTES-induced Ca2+ mobilization; experiment: RANTES-induced Ca2+ mobilization; format: cell-based
[3] = test system: STAM mouse model of Non-alcoholic Steatohepatitis; experiment: STAM mouse model of NASH, week 9 (anti-NASH/fibrosis effects); format: in vivo; settings: for Sirius red-positive area (fibrosis area): perivascular space included; for Modified Sirius red-positive area: perivascular space subtracted
Description: NASH was induced in male mice by a single injection of 200 μg streptozotocin 2 days after birth (causing impaired glucose control), followed by a high fat diet from 4 weeks of age. […] Animals were sacrificed at 9 weeks of age, and biochemical, gene expression, and histologic evaluations of the liver were conducted.

[4] = test system: STAM mouse model of Non-alcoholic Steatohepatitis (NASH-derived HCC); experiment: STAM mouse model of NASH, week 18 (anti-HCC effects); settings: for Mice that died before sacrifice (survival analysis): weeks 6-18
Description: Group 1—Vehicle: Eighteen NASH mice were orally administered vehicle at a volume of 10 mL/kg twice daily (9:00 and 19:00) from 6 weeks of age.

[5] = Mouse thioglycollate-induced peritonitis model: circulating blood cell counts; settings: in vivo
Description: The lavage fluid was placed on wet ice pending processing for total and differential cell counts using the Advia analyzer. Following the lavage collection, a blood sample (0.7 mL) was collected from each mouse by intracardiac puncture or from the vena cava (collection time was recorded). 0.5 mL of blood was placed in an EDTA tube, transferred to clinical pathology and analyzed for differential cell counts using the Advia analyzer. 0.2 mL of blood was placed in a K2EDTA tube and processed to plasma. The plasma was collected by centrifugation (3000 rpm for 10 minutes at 4° C.) and placed on dry ice. The samples were analyzed to determine CVC plasma levels. After blood collection, the animals were then exsanguinated by sectioning of the abdominal aorta.
Statistical Analysis: One-way ANOVA with post-hoc Dunnett's statistical analysis was performed on differential cell counts obtained from lavage and blood samples. The analysis was performed in comparison to Group 2.

CCR5 = CCR5 (Homo sapiens, UniProt P51681); experiment: RANTES-induced CCR5 internalization / CCR5 receptor occupancy in PBMCs (flow cytometry); format: cell-based
Description: The capacity of each drug to inhibit CCR5 or CCR2 internalization was evaluated. Cell-surface expression of CCR5 and CCR2 was assessed by flow cytometry, and fluorescence values were converted into molecules of equivalent soluble fluorescence (MESF).

HIV-1 = experiment: Ex vivo intracellular HIV DNA qPCR in PBMCs of Study 202 participants; parameters: species or system human; settings: EFV 600 mg, week 24
Description: Intracellular DNA qPCR. Total DNA was extracted, quantified, and stored at −80 C.
The Mann-Whitney test was used to analyze in vitro intracellular HIV DNA levels for all three treatment groups. All data were analyzed using Prism 5 software.

[6] = CVC-high 100 mg/kg/day, week 9, listed as Cenicriviroc
[7] = CVC-low 20 mg/kg/day, week 9, listed as Cenicriviroc
[8] = CVC-high 100 mg/kg/day, week 18
[9] = CVC-high 100 mg/kg/day, week 18, listed as Cenicriviroc
[10] = CVC-low 20 mg/kg/day, week 18, listed as Cenicriviroc

Sequence of CCR5 (P51681 whole entry): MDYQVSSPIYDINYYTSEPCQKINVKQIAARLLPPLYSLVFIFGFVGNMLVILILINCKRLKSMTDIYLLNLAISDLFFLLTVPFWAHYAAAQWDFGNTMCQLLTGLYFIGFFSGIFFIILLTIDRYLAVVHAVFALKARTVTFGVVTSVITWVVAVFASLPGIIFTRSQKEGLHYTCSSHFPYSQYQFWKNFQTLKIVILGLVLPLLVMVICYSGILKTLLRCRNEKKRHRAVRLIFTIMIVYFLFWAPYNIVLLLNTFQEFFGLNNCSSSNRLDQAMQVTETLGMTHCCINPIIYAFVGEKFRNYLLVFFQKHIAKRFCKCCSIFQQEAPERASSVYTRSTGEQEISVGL
Sequence of CCR3 (P51677 whole entry): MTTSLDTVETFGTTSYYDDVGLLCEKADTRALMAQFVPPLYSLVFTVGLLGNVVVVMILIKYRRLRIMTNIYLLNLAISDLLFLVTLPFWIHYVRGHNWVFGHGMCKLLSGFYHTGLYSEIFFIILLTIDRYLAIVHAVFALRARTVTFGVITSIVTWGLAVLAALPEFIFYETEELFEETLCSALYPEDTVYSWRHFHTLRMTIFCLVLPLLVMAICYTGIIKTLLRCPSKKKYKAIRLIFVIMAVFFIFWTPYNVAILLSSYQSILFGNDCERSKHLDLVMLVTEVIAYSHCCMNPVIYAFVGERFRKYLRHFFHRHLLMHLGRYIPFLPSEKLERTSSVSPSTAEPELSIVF

CCCCOCCOc1ccc(-c2ccc3c(c2)/C=C(/C(=O)Nc2ccc([S@@+]([O-])Cc4cncn4CCC)cc2)CCCN3CC(C)C)cc1 [CVC, (S)-8-[4-(2-Butoxyethoxy)phenyl]-1-isobutyl-N-(4-{[(1-propyl-1H-imidazol-5-yl)methyl]sulfinyl}phenyl)-1,2,3,4-tetrahydro-1-benzazocine-5-carboxamide]
Half-life in mice [1]: ~2 h | Inhibition of ligand binding to CCR3 (CCR3): only weakly inhibited | Effect on RANTES-induced Ca2+ mobilization [2]: blocked | Effect on body or liver weight, whole blood glucose, or liver triglycerides ([3]; 20 and 100 mg/kg/day, week 9): no effect | Decrease of collagen type 1 mRNA in whole liver lysates (real-time RT-PCR) ([3]; CVC 20 and 100 mg/kg/day, week 9): 27-37% | Body weight ([3]; CVC-high 100 mg/kg/day, week 9): 18.7 ± 0.9 g | F4/80-positive area (inflammation area) ([3]; CVC-high 100 mg/kg/day, week 9): 4.96±0.60% | F4/80 and CD16/32-positive cells ([3]; CVC-high 100 mg/kg/day, week 9): 41.5±8.2% | F4/80 and CD206-positive cells ([3]; CVC-high 100 mg/kg/day, week 9): 33.1±3.0% | Liver hydroxyproline ([3]; CVC-high 100 mg/kg/day, week 9): 0.62±0.09 μg/mg total protein | Liver triglyceride ([3]; CVC-high 100 mg/kg/day, week 9): 51.7±14.1 mg/g liver | Liver weight ([3]; CVC-high 100 mg/kg/day, week 9): 1307 ± 119 mg | NAFLD Activity Score (NAS) ([3]; CVC-high 100 mg/kg/day, week 9): 3.7±0.8 | Oil red-positive area (fat deposition area) ([3]; CVC-high 100 mg/kg/day, week 9): 7.23±3.59% | Plasma ALT ([3]; CVC-high 100 mg/kg/day, week 9): 51±13 U/L and 52±13 U/L | Plasma MCP-1 ([3]; CVC-high 100 mg/kg/day, week 9): 91 ± 14 pg/mL | Plasma MIP-1β ([3]; CVC-high 100 mg/kg/day, week 9): 20 ± 4 pg/mL | TUNEL-positive cells ([3]; CVC-high 100 mg/kg/day, week 9): 39.0±5.3% | Whole blood glucose ([3]; CVC-high 100 mg/kg/day, week 9): 585 ± 91 mg/dL | Body weight [3, 6]: 18.7 ± 0.9 g | F4/80-positive area (inflammation area) [3, 6]: 4.96 ± 0.60% | F4/80 and CD16/32-positive cells [3, 6]: 41.5 ± 8.2% | F4/80 and CD206-positive cells [3, 6]: 33.1 ± 3.0% | Liver hydroxyproline [3, 6]: 0.62 ± 0.09 μg/mg total protein | Liver triglyceride [3, 6]: 51.7 ± 14.1 mg/g liver | Liver weight [3, 6]: 1307 ± 119 mg | NAFLD Activity Score (NAS) [3, 6]: 3.7 ± 0.8 | Oil red-positive area (fat deposition area) [3, 6]: 7.23 ± 3.59% | Plasma ALT [3, 6]: 52 ± 13 U/L | Plasma MCP-1 [3, 6]: 91 ± 14 pg/mL | Plasma MIP-1β [3, 6]: 20 ± 4 pg/mL | TUNEL-positive cells [3, 6]: 39.0 ± 5.3% | Whole blood glucose [3, 6]: 585 ± 91 mg/dL | Sirius red-positive area (fibrosis area) [3, 6]: 0.64 ± 0.19% | Modified Sirius red-positive area [3, 6]: 0.20 ± 0.06% | Modified positive area (%), per mouse ([3]; CVC-high, Sirius red, mice 301-306 (raw data), listed as Cenicriviroc): 0.12% and 0.26% and 0.17% and 0.27% and 0.18% and 0.20% | Modified positive area (%), individual photo ([3]; CVC-high, Sirius red, mice 301-306, photos 1-5 (raw data), listed as Cenicriviroc): 0.17% (2×) and 0.28% (2×) and 0.22% (2×) and 0.08% (3×) and 0.05% and 0.09% (2×) and 0.32% and 0.07% (3×) and 0.16% and 0.20% (2×) and 0.68% and 0.23% (2×) and 0.27% and 0.12% and 0.11% and 0.67% and 0.26% and 0.06% and 0.10% and 0.41% | Number of animals with Hepatocyte ballooning score 0 ([3]; CVC-high, week 9, n=6): 1 | Number of animals with Hepatocyte ballooning score 1 ([3]; CVC-high, week 9, n=6): 2 | Number of animals with Hepatocyte ballooning score 2 ([3]; CVC-high, week 9, n=6): 3 | Number of animals with Lobular inflammation score 1 ([3]; CVC-high, week 9, n=6): 3 | Number of animals with Lobular inflammation score 2 ([3]; CVC-high, week 9, n=6): 3 | Number of animals with Steatosis score 1 ([3]; CVC-high, week 9, n=6): 5 | Body weight ([3]; CVC-low 20 mg/kg/day, week 9): 19.5 ± 2.0 g | F4/80-positive area (inflammation area) ([3]; CVC-low 20 mg/kg/day, week 9): 4.77±1.02% | F4/80 and CD16/32-positive cells ([3]; CVC-low 20 mg/kg/day, week 9): 38.7±7.6% | F4/80 and CD206-positive cells ([3]; CVC-low 20 mg/kg/day, week 9): 34.7±6.3% | Liver hydroxyproline ([3]; CVC-low 20 mg/kg/day, week 9): 0.63±0.05 μg/mg total protein | Liver triglyceride ([3]; CVC-low 20 mg/kg/day, week 9): 48.5±16.1 mg/g liver | Liver weight ([3]; CVC-low 20 mg/kg/day, week 9): 1334 ± 99 mg | NAFLD Activity Score (NAS) ([3]; CVC-low 20 mg/kg/day, week 9): 4.0±0.6 | Oil red-positive area (fat deposition area) ([3]; CVC-low 20 mg/kg/day, week 9): 6.51±3.88% | Plasma ALT ([3]; CVC-low 20 mg/kg/day, week 9): 58±12 U/L | Plasma MCP-1 ([3]; CVC-low 20 mg/kg/day, week 9): 68 ± 16 pg/mL | Plasma MIP-1β ([3]; CVC-low 20 mg/kg/day, week 9): 18 ± 2 pg/mL | TUNEL-positive cells ([3]; CVC-low 20 mg/kg/day, week 9): 43.3±2.9% | Whole blood glucose ([3]; CVC-low 20 mg/kg/day, week 9): 585 ± 91 mg/dL | Body weight [3, 7]: 19.5 ± 2.0 g | F4/80-positive area (inflammation area) [3, 7]: 4.77 ± 1.02% | F4/80 and CD16/32-positive cells [3, 7]: 38.7 ± 7.6% | F4/80 and CD206-positive cells [3, 7]: 34.7 ± 6.3% | Liver hydroxyproline [3, 7]: 0.63 ± 0.05 μg/mg total protein | Liver triglyceride [3, 7]: 48.5 ± 16.1 mg/g liver | Liver weight [3, 7]: 1334 ± 99 mg | NAFLD Activity Score (NAS) [3, 7]: 4.0 ± 0.6 | Oil red-positive area (fat deposition area) [3, 7]: 6.51 ± 3.88% | Plasma ALT [3, 7]: 58 ± 12 U/L | Plasma MCP-1 [3, 7]: 68 ± 16 pg/mL | Plasma MIP-1β [3, 7]: 18 ± 2 pg/mL | TUNEL-positive cells [3, 7]: 43.3 ± 2.9% | Whole blood glucose [3, 7]: 585 ± 91 mg/dL | Sirius red-positive area (fibrosis area) [3, 7]: 0.66 ± 0.16% | Modified Sirius red-positive area [3, 7]: 0.29 ± 0.14% | Number of animals with Hepatocyte ballooning score 1 ([3]; CVC-low, week 9, n=6): 3 | Number of animals with Hepatocyte ballooning score 2 ([3]; CVC-low, week 9, n=6): 3 | Number of animals with Lobular inflammation score 1 ([3]; CVC-low, week 9, n=6): 3 | Number of animals with Lobular inflammation score 2 ([3]; CVC-low, week 9, n=6): 3 | Number of animals with Steatosis score 1 ([3]; CVC-low, week 9, n=6): 6 | Increase in plasma monocyte chemotactic protein-1 levels ([3]; high dose 100 mg/kg/day, week 9): 1.5 fold | Increase in plasma monocyte chemotactic protein-1 levels ([3]; low dose 20 mg/kg/day, week 9): 1.1 fold | Effect on NASH-derived HCC ([4]; CVC treatment groups, week 18): not observed | Body weight [4, 8]: 20.8 ± 2.7 g | CD31-positive area [4, 8]: 3.68±1.37% | Liver weight [4, 8]: 1817 ± 446 mg | Maximum diameter of visible tumor nodules [4, 8]: 5.3±5.1 mm | Number of visible tumor nodules [4, 8]: 3.6±2.5 | Body weight [4, 9]: 20.8 ± 2.7 g | CD31-positive area [4, 9]: 3.68 ± 1.37% | Liver weight [4, 9]: 1817 ± 446 mg | Maximum diameter of visible tumor nodules [4, 9]: 5.3 ± 5.1 mm | Number of visible tumor nodules [4, 9]: 3.6 ± 2.5 | Mice with GS-positive nodules ([4]; CVC-high, week 18): seven out of seven | Mice with HCC lesions (HE staining) ([4]; CVC-high, week 18): six out of seven | Mice that died before sacrifice (survival analysis) ([4]; CVC-high): Five out of twelve | Body weight ([4]; CVC-low 20 mg/kg/day, week 18): 22.9 ± 3.5 g | CD31-positive area ([4]; CVC-low 20 mg/kg/day, week 18): 1.47±1.10% | Liver weight ([4]; CVC-low 20 mg/kg/day, week 18): 1837 ± 410 mg | Maximum diameter of visible tumor nodules ([4]; CVC-low 20 mg/kg/day, week 18): 4.8±5.4 mm | Number of visible tumor nodules ([4]; CVC-low 20 mg/kg/day, week 18): 1.5±1.9 | Body weight [4, 10]: 22.9 ± 3.5 g | CD31-positive area [4, 10]: 1.47 ± 1.10% | Liver weight [4, 10]: 1837 ± 410 mg | Maximum diameter of visible tumor nodules [4, 10]: 4.8 ± 5.4 mm | Number of visible tumor nodules [4, 10]: 1.5 ± 1.9 | Mice with GS-positive nodules ([4]; CVC-low, week 18): five out of six | Mice with HCC lesions (HE staining) ([4]; CVC-low, week 18): five out of six | Mice that died before sacrifice (survival analysis) ([4]; CVC-low): Six out of twelve | Circulating blood cell counts [5]: no clear changes | receptor occupancy at […] (CCR5; CCR5, […] nM for CD4+ and 2.3 nM for CD8+ T-cells, ex vivo in humans): ≥ 90% | CCR5 receptor occupancy at saturation (CCR5; CD4+ T cells): ~91% | Effective concentration at which saturation of CCR5 was reached (CCR5; CD4+ T cells): 3.1 nM | CCR5 receptor occupancy at saturation (CCR5; CD8+ T cells): ~90% | Effective concentration at which saturation of CCR5 was reached (CCR5; CD8+ T cells): 2.3 nM | Cell-surface expression of CCR5 (CCR5; in the absence of RANTES): increased cell-surface expression of CCR5

O=C1Nc2ccc(Cl)cc2[C@@](C#CC2CC2)(C(F)(F)F)O1 [EFV, efavirenz, reference compound]
Full-length intracellular HIV DNA, mean fold-change from baseline (HIV-1): 0.825 fold | Strong-stop intracellular HIV DNA, mean fold-change from baseline (HIV-1): 1.01 fold
